Experimental data reported in patent publication US20240122182A1, “PESTICIDALLY ACTIVE HETEROCYCLIC DERIVATIVES WITH SULFUR CONTAINING SUBSTITUENTS” (SYNGENTA CROP PROTECTION AG, priority 2021, published 2024).

Experiments:
Format in all cases: in vivo
[1] = tested on: Chilo suppressalis (Striped Rice Stemborer); assay: Activity against Chilo suppressalis (striped rice stemborer), artificial diet; details: 144 h, application rate of 200 ppm, L2 larvae, 6 days after infestation, read-out: control (mortality, anti-feeding effect, growth inhibition)
Description: 24-well microtiter plates with artificial diet were treated with aqueous test solutions prepared from 10′000 ppm DMSO stock solutions by pipetting. After drying, the plates were infested with L2 larvae (6-8 per well). The samples were assessed for mortality, anti-feeding effect, and growth inhibition in comparison to untreated samples 6 days after infestation. Control of Chilo suppressalis by a test sample is given when at least one of the categories mortality, anti-feedant effect, and growth inhibition is higher than the untreated sample.

[2] = tested on: Diabrotica Balteata (Corn Root Worm); assay: Activity against Diabrotica balteata (corn root worm), maize sprouts sprayed; details: 96 h, application rate of 200 ppm, L2 larvae, 4 days after infestation, read-out: effect in at least one of the two categories (mortality or growth inhibition)
Description: Maize sprouts placed onto an agar layer in 24-well microtiter plates were treated with aqueous test solutions prepared from 10′000 ppm DMSO stock solutions by spraying. After drying, the plates were infested with L2 larvae (6 to 10 per well). The samples were assessed for mortality and growth inhibition in comparison to untreated samples 4 days after infestation.

[3] = tested on: Euschistus heros (Neotropical Brown Stink Bug); assay: Activity against Euschistus heros (neotropical brown stink bug), soybean leaves sprayed; details: 120 h, application rate of 200 ppm, N2 nymphs, 5 days after infestation, read-out: effect in at least one of the two categories (mortality or growth inhibition)
Description: Soybean leaves on agar in 24-well microtiter plates were sprayed with aqueous test solutions prepared from 10′000 ppm DMSO stock solutions. After drying the leaves were infested with N2 nymphs. The samples were assessed for mortality and growth inhibition in comparison to untreated samples 5 days after infestation.

[4] = tested on: Myzus persicae (Green Peach Aphid); assay: Activity against Myzus persicae (green peach aphid), feeding/contact activity; details: 144 h, application rate of 200 ppm, mixed ages, 6 days after infestation
Description: Sunflower leaf discs were placed onto agar in a 24-well microtiter plate and sprayed with aqueous test solutions prepared from 10′000 ppm DMSO stock solutions. After drying, the leaf discs were infested with an aphid population of mixed ages. The samples were assessed for mortality 6 days after infestation.

[5] = tested on: Plutella xylostella (Diamond Back Moth); assay: Activity against Plutella xylostella (diamond back moth), artificial diet; details: 192 h, application rate of 200 ppm, eggs, 8 days after infestation, read-out: effect in at least one of the two categories (mortality or growth inhibition)
Description: 24-well microtiter plates with artificial diet were treated with aqueous test solutions prepared from 10′000 ppm DMSO stock solutions by pipetting. After drying, Plutella eggs were pipetted through a plastic stencil onto a gel blotting paper and the plate was closed with it. The samples were assessed for mortality and growth inhibition in comparison to untreated samples 8 days after infestation.

[6] = tested on: Spodoptera littoralis (Egyptian Cotton Leaf Worm); assay: Activity against Spodoptera littoralis (Egyptian cotton leaf worm), cotton leaf discs sprayed; details: foliar, 72 h, application rate of 200 ppm, L1 larvae, 3 days after infestation, read-out: control (mortality, anti-feeding effect, growth inhibition)
Description: Cotton leaf discs were placed onto agar in 24-well microtiter plates and sprayed with aqueous test solutions prepared from 10′000 ppm DMSO stock solutions. After drying the leaf discs were infested with five L1 larvae. The samples were assessed for mortality, anti-feeding effect, and growth inhibition in comparison to untreated samples 3 days after infestation. Control of Spodoptera littoralis by a test sample is given when at least one of the categories mortality, anti-feedant effect, and growth inhibition is higher than the untreated sample.

[7] = tested on: Carpocapsa (Cydia) Pomonella (Codling Moth); assay: Activity against Carpocapsa (Cydia) pomonella (codling moth), larvicide, feeding/contact; details: 336 h, application rate of 12.5 ppm, L1 larvae, 14 days after infestation, read-out: effect in at least one of the two categories (mortality or growth inhibition)
Description: Diet cubes coated with paraffin were sprayed with diluted test solutions in an application chamber. After drying off the treated cubes (10 replicates) were infested with 1 L1 larvae. Samples were incubated at 26-27° C. and checked 14 days after infestation for mortality and growth inhibition. The following compounds gave an effect of at least 80% in at least one of the two categories (mortality or growth inhibition) at an application rate of 12.5 ppm: P1, P2, P3, P5, P9, P10, P11, P12, P14, P17, P19, P20, P21, P23, P24, P30, P31.

CCSc1cc(C(C)(C)C#N)cnc1-c1cc2c(cn1)N(CC(F)(F)C(F)(F)F)C(=O)OC2 [P33, 2-[5-ethylsulfanyl-6-[2-oxo-1-(2,2,3,3,3-pentafluoropropyl)-4H-pyrido[3,4-d][1,3]oxazin-6-yl]-3-pyridyl]-2-methyl-propanenitrile]
≥ 80%: mortality at 200 ppm [1] | percent effect (mortality or growth inhibition) at 200 ppm [2] | percent effect (mortality or growth inhibition) at 200 ppm [3]

CCS(=O)(=O)c1ccc(-n2cncn2)nc1-c1cc2c(cn1)N(CC(F)(F)C(F)(F)F)C(=O)CC2 [P13, 6-[3-ethylsulfonyl-6-(1,2,4-triazol-1-yl)-2-pyridyl]-1-(2,2,3,3,3-pentafluoropropyl)-3,4-dihydro-1,7-naphthyridin-2-one]
≥ 80%: mortality at 200 ppm [1] | percent effect (mortality or growth inhibition) at 200 ppm [2] | mortality at 200 ppm [4] | percent effect (mortality or growth inhibition) at 200 ppm [5] | mortality at 200 ppm [6]

CCSc1cc(NC)cnc1-c1cc2c(cn1)N(CC(F)(F)C(F)(F)F)C(=O)OC2 [P28, 6-[3-ethylsulfanyl-5-(methylamino)-2-pyridyl]-1-(2,2,3,3,3-pentafluoropropyl)-4H-pyrido[3,4-d][1,3]oxazin-2-one]
≥ 80%: percent effect (mortality or growth inhibition) at 200 ppm [5]

CCSc1cc(C2(C#N)CC2)cnc1-c1cc2c(cn1)N(CC(F)(F)F)C(=O)CC2 [P6, 1-[5-ethylsulfanyl-6-[2-oxo-1-(2,2,2-trifluoroethyl)-3,4-dihydro-1,7-naphthyridin-6-yl]-3-pyridyl]cyclopropanecarbonitrile]
≥ 80%: mortality at 200 ppm [1] | percent effect (mortality or growth inhibition) at 200 ppm [2] | percent effect (mortality or growth inhibition) at 200 ppm [3] | percent effect (mortality or growth inhibition) at 200 ppm [5] | mortality at 200 ppm [6]

CC[S+]([O-])c1cc(OCC(C)(F)F)cnc1-c1cc2c(cn1)N(CC(F)(F)C(F)(F)F)C(=O)OC2 (centres unmarked) [P32, 6-[5-(2,2-difluoropropoxy)-3-ethylsulfinyl-2-pyridyl]-1-(2,2,3,3,3-pentafluoropropyl)-4H-pyrido[3,4-d][1,3]oxazin-2-one]
≥ 80%: percent effect (mortality or growth inhibition) at 200 ppm [2] | percent effect (mortality or growth inhibition) at 200 ppm [5] | mortality at 200 ppm [6]

CCSc1cc(N(C)C(C)=O)cnc1-c1cc2c(cn1)N(CC(F)(F)C(F)(F)F)C(=O)OC2 [P29, N-[5-ethylsulfanyl-6-[2-oxo-1-(2,2,3,3,3-pentafluoropropyl)-4H-pyrido[3,4-d][1,3]oxazin-6-yl]-3-pyridyl]-N-methyl-acetamide]
≥ 80%: mortality at 200 ppm [1] | mortality at 200 ppm [4] | percent effect (mortality or growth inhibition) at 200 ppm [5] | mortality at 200 ppm [6]

CCS(=O)(=O)c1cc(Oc2ccccn2)cnc1-c1cc2c(cn1)N(CC(F)(F)C(F)(F)F)C(=O)CC2 [P21, 6-[3-ethylsulfonyl-5-(2-pyridyloxy)-2-pyridyl]-1-(2,2,3,3,3-pentafluoropropyl)-3,4-dihydro-1,7-naphthyridin-2-one]
≥ 80%: mortality at 200 ppm [1] | percent effect (mortality or growth inhibition) at 200 ppm [2] | percent effect (mortality or growth inhibition) at 200 ppm [3] | percent effect (mortality or growth inhibition) at 200 ppm [5] | mortality at 200 ppm [6] | percent effect (mortality or growth inhibition) at 12.5 ppm [7]

CCS(=O)(=O)c1ccc(-n2cncn2)nc1-c1cc2c(cn1)N(CC(F)(F)C(F)(F)F)C(=O)OC2 [P16, 6-[3-ethylsulfonyl-6-(1,2,4-triazol-1-yl)-2-pyridyl]-1-(2,2,3,3,3-pentafluoropropyl)-4H-pyrido[3,4-d][1,3]oxazin-2-one]
≥ 80%: mortality at 200 ppm [1] | percent effect (mortality or growth inhibition) at 200 ppm [2] | mortality at 200 ppm [4] | percent effect (mortality or growth inhibition) at 200 ppm [5] | mortality at 200 ppm [6]

CCSc1cc(OCC(C)(F)F)cnc1-c1cc2c(cn1)N(CC(F)(F)C(F)(F)F)C(=O)CC2 [P25, 6-[5-(2,2-difluoropropoxy)-3-ethylsulfanyl-2-pyridyl]-1-(2,2,3,3,3-pentafluoropropyl)-3,4-dihydro-1,7-naphthyridin-2-one]
≥ 80%: mortality at 200 ppm [1] | percent effect (mortality or growth inhibition) at 200 ppm [2] | percent effect (mortality or growth inhibition) at 200 ppm [5] | mortality at 200 ppm [6]

CCSc1cc(N(C)C(C)=O)cnc1-c1cc2c(cn1)N(CC(F)(F)C(F)(F)F)C(=O)CC2 [P7, N-[5-ethylsulfanyl-6-[2-oxo-1-(2,2,3,3,3-pentafluoropropyl)-3,4-dihydro-1,7-naphthyridin-6-yl]-3-pyridyl]-N-methyl-acetamide]
≥ 80%: mortality at 200 ppm [4]

CCS(=O)(=O)c1cc(-n2ccc(Cl)n2)cnc1-c1cc2c(cn1)N(CC(F)(F)C(F)(F)F)C(=O)CC2 [P5, 6-[5-(3-chloropyrazol-1-yl)-3-ethylsulfonyl-2-pyridyl]-1-(2,2,3,3,3-pentafluoropropyl)-3,4-dihydro-1,7-naphthyridin-2-one]
≥ 80%: mortality at 200 ppm [1] | percent effect (mortality or growth inhibition) at 200 ppm [2] | percent effect (mortality or growth inhibition) at 200 ppm [3] | percent effect (mortality or growth inhibition) at 200 ppm [5] | mortality at 200 ppm [6] | percent effect (mortality or growth inhibition) at 12.5 ppm [7]

CCSc1cc(OCC(C)(F)F)cnc1-c1cc2c(cn1)N(CC(F)(F)C(F)(F)F)C(=O)OC2 [P27, 6-[5-(2,2-difluoropropoxy)-3-ethylsulfanyl-2-pyridyl]-1-(2,2,3,3,3-pentafluoropropyl)-4H-pyrido[3,4-d][1,3]oxazin-2-one]
≥ 80%: mortality at 200 ppm [1] | percent effect (mortality or growth inhibition) at 200 ppm [2] | percent effect (mortality or growth inhibition) at 200 ppm [3] | percent effect (mortality or growth inhibition) at 200 ppm [5] | mortality at 200 ppm [6]

CCSc1cc(C2(C#N)CC2)cnc1-c1cc2c(cn1)N(CC(F)(F)F)C(=O)OC2 [P35, 1-[5-ethylsulfanyl-6-[2-oxo-1-(2,2,2-trifluoroethyl)-4H-pyrido[3,4-d][1,3]oxazin-6-yl]-3-pyridyl]cyclopropanecarbonitrile]
≥ 80%: percent effect (mortality or growth inhibition) at 200 ppm [2] | percent effect (mortality or growth inhibition) at 200 ppm [5]

CCSc1cc(C(F)(F)F)cnc1-c1cc2c(cn1)N(CC(F)(F)C(F)(F)F)C(=O)OC2 [P26, 6-[3-ethylsulfanyl-5-(trifluoromethyl)-2-pyridyl]-1-(2,2,3,3,3-pentafluoropropyl)-4H-pyrido[3,4-d][1,3]oxazin-2-one]
≥ 80%: mortality at 200 ppm [1] | percent effect (mortality or growth inhibition) at 200 ppm [2] | percent effect (mortality or growth inhibition) at 200 ppm [5]
